Results reported in US20230258642A1, “COMPOSITIONS AND METHODS FOR IDENTIFICATION OF MODULATORS OF RAS PROTEIN COMPLEXES” (QUANTA THERAPEUTICS, INC., priority 2020, published 2023).

Columns and labels:
Annexin V = target: T1, Annexin V (Homo sapiens, UniProt P08758); assay: Annexin V counter-screen SHG assay on phosphatidyl serine surface; format: binding
T1 sequence (P08758 1-320): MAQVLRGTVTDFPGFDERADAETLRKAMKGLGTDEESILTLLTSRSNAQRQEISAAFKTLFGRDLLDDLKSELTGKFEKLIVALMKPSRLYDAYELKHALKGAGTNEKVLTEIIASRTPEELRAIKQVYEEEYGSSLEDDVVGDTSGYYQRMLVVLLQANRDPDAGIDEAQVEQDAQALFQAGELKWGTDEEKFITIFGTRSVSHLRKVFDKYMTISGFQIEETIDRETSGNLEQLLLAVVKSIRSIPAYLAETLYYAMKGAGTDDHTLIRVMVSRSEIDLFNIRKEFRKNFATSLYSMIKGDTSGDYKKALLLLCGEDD
Description: Annexin V binds to phosphatidyl serine membrane like KRAS^G12D-FMe in a calcium-dependent manner. However, Annexin V is structurally unrelated to KRAS/RAF1 complex. Addition of EDTA, a chelation agent, results in >80% decrease in SHG signal due to loss of Annexin V protein from the phosphatidyl serine surface. […] This assay was established as a counter-screen assay to the KRAS^G12D-FMe+SH-active RAF1^RBDCRD interaction, allowing detection of false-positives due to metal chelation or non-specific protein binding.

[1] = target: T2, KRAS^G12D-FMe+RAF1^RBDCRD-SHG2 complex (Homo sapiens, UniProt P01116, G12D); assay: SHG complex assay: KRAS^G12D-FMe + SH-active RAF1^RBDCRD complex tethered to a PS bilayer; format: binding; conditions: complex tethered overnight in the presence of 1 mM GDP
T2 construct: 1; farnesyl and carboxymethyl modification (FMe) at the C-terminal Cys
Experimental: Factors contributing towards maximizing the complex SHG signal compared to bilayer-tethered KRAS^G12D-FMe alone were further optimized in order to develop a robust screening assay that would allow the separation of real conformational modulators from the baseline signal noise. Accordingly, a pre-formed complex was tethered to the bilayer and the baseline SHG intensity of the complex was compared to each individual component.
In comparison, each protein component was incubated on the PS bilayer to make sure the SHG signal generated by the complex was distinct from any signal produced by the individual components (FIG. 3B). The PS bilayer alone produced a baseline SHG signal around 6000. […]
Since RAF1 binding to KRAS is nucleotide dependent, the SHG signal change was monitored in the presence of 10 mM EDTA and 1 mM GDP. […] The SHG response to this control reinforced that the detected complex signal behaves according to its characterized biology.
A beam from a Ti:S femtosecond laser is used as the fundamental according to procedures known to those skilled in the art. […] Second harmonic light generated by the surface is collected, filtered from the fundamental, and detected by a photomultiplier tube (PMT) according to procedures known to those skilled in the art. A baseline signal with declining intensity due to photobleaching is recorded. […]

O=C(O)CN(CCN(CC(=O)O)CC(=O)O)CC(=O)O [EDTA]
decrease in SHG signal (loss of Annexin V from phosphatidyl serine surface) (Annexin V): > 80%

Nc1nc2c(ncn2[C@@H]2O[C@H](COP(=O)(O)OP(=O)(O)O)[C@@H](O)[C@H]2O)c(=O)[nH]1 [GDP]
complex SHG signal [1]: no complex SHG signal was detected

COc1ccc2c(c1)CN(C(=O)CCN1CCC(Cc3ccccc3)CC1)CCS2 [K201]
SHG response upon addition to Annexin V (Annexin V): dose-dependent SHG response
